Reference: PubChem BioAssay (NCI)
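These data come from cells grown in 96-well plates and exposed to compound for 48 hours at five concentrations. The concentration for 50% growth inhibition is given as GI50. At the TGI there is no net growth.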

Experiments:
Experiment in all cases: NCI-60 cell line screen, 48 h
SK-MEL-28 melanoma = test system: SK-MEL-28 melanoma
HOP-92 NSCLC = test system: HOP-92 NSCLC
SNB-19 CNS = test system: SNB-19 CNS
MALME-3M melanoma = test system: MALME-3M melanoma
NCI-H23 lung = test system: NCI-H23 lung
A549 NSCLC = test system: A549 NSCLC
NCI-H226 lung = test system: NCI-H226 lung
HCT-15 colon = test system: HCT-15 colon
OVCAR-3 ovarian = test system: OVCAR-3 ovarian
MDA-MB-231 breast = test system: MDA-MB-231 breast

SMILES | TGI (SK-MEL-28 melanoma) [µM] | TGI (HOP-92 NSCLC) [µM] | TGI (SNB-19 CNS) [µM] | TGI (MALME-3M melanoma) [µM] | TGI (NCI-H23 lung) [µM] | TGI (A549 NSCLC) [µM] | TGI (NCI-H226 lung) [µM] | TGI (HCT-15 colon) [µM] | TGI (OVCAR-3 ovarian) [µM] | TGI (MDA-MB-231 breast) [µM] | GI50 (SK-MEL-28 melanoma) [µM] | GI50 (HOP-92 NSCLC) [µM] | GI50 (SNB-19 CNS) [µM] | GI50 (MALME-3M melanoma) [µM] | GI50 (MDA-MB-231 breast) [µM] | GI50 (NCI-H23 lung) [µM] | GI50 (A549 NSCLC) [µM] | GI50 (NCI-H226 lung) [µM] | GI50 (HCT-15 colon) [µM] | GI50 (OVCAR-3 ovarian) [µM]
Cc1c2ccnc(-c3ccccc3)c2cc2c1[nH]c1ccccc12 | 19.5 | 3.12 | 17.9 | 9.31 | 19.9 | 10.3 | 5.23 | 9.62 | 8.99 | – | – | – | – | – | – | – | – | – | – | –
O=C(CSCC(=O)N/N=C/c1cccc(OCc2ccccc2)c1)N/N=C/c1cccc(OCc2ccccc2)c1 | > 100 | 97.2 | > 100 | > 100 | > 100 | > 100 | > 100 | > 100 | > 100 | > 100 | – | – | – | – | – | – | – | – | – | –
O=C(O)c1ccccn1 | > 100 | > 100 | > 100 | – | > 100 | > 100 | > 100 | > 100 | > 100 | > 100 | – | – | – | – | – | – | – | – | – | –
CCOC(=O)c1c2c(c(O)c3ccccc3c(O)n(-c3ccc(C)cc3)c1C)C(=O)C=CC2=O | – | 56.9 | > 100 | 37.4 | 52 | > 100 | > 100 | 34.7 | 35.2 | 55.7 | – | – | – | – | – | – | – | – | – | –
COc1ccc(-n2c3c(c4cc(O)ccc42)C(=O)c2ccccc2C3=O)cc1 | > 100 | 47.5 | > 100 | > 100 | > 100 | > 100 | – | > 100 | 27.2 | 13.6 | – | – | – | – | – | – | – | – | – | –
NCS(=O)(=O)O | > 100 | > 100 | > 100 | > 100 | > 100 | > 100 | > 100 | > 100 | > 100 | > 100 | – | – | – | – | – | – | – | – | – | –
COc1cc2c(cc1OC)C(Cl)C(c1ccc(Cl)cc1)=C2Cl (configuration not stated) | 41.4 | 32.3 | > 100 | 56.8 | 41.1 | – | 50.6 | 41.4 | 30.1 | – | – | – | – | – | – | – | – | – | – | –
C[C@@H]1CC[C@H]2C(COC/C=C/COCC3=C(C(F)(F)F)O[C@@H]4O[C@@]5(C)CC[C@H]6[C@H](C)CC[C@@H]3[C@@]46OO5)=C(C(F)(F)F)O[C@@H]3O[C@@]4(C)CC[C@@H]1[C@]32OO4 | > 100 | – | > 100 | 0.0445 | 12.3 | > 50.1 | 0.191 | 14.2 | 0.336 | 0.865 | 63.9 | < 0.032 | 0.542 | < 0.01 | < 0.0416 | < 0.0178 | < 0.0138 | 0.0199 | 0.038 | < 0.0114
O=C(CC1(O)C(=O)Nc2ccc(Br)cc21)c1ccc(C(=O)NCC2CCC3(CC2)OOC2(CCCCC2)OO3)cc1 (configuration not stated) | 46 | 4.46 | 38.7 | 6.63 | 32 | > 100 | 30 | 34.3 | 10.4 | 37.1 | 11.1 | 1.9 | 10.5 | 2.47 | 5.96 | 6.43 | 4.3 | 4.7 | 4.59 | 2.13
CN(C)c1ccc2nc3c(C(=O)O)cc(=O)c(O)c-3oc2c1 | > 100 | > 100 | 89.8 | 31.7 | 33.6 | > 100 | > 100 | > 100 | 60.8 | > 100 | – | – | – | – | – | – | – | – | – | –
COc1ccc(CNc2nc(NCc3ccc(OC)cc3)nc(NC(C)C)n2)cc1 | > 100 | 48.7 | > 100 | 22.8 | 30.8 | 33.7 | – | > 100 | 10.3 | – | – | – | – | – | – | – | – | – | – | –
CN(C)c1ccc(C2CC(=O)C(C#N)=C(c3ccccc3)NN2C)cc1 (configuration not stated) | > 100 | > 100 | > 100 | > 100 | > 100 | > 100 | > 100 | 32.5 | – | – | – | – | – | – | – | – | – | – | – | –
COc1cccc(-c2cccc(SC)n2)n1 | > 100 | 67.4 | > 100 | – | > 100 | > 100 | 31.6 | > 100 | 61.1 | > 100 | – | – | – | – | – | – | – | – | – | –
CCOC(=O)C1=C(C)N(C)C(=S)NC1c1cccc(O)c1 (configuration not stated) | > 100 | 75.1 | > 100 | – | > 100 | > 100 | > 100 | > 100 | > 100 | > 100 | – | – | – | – | – | – | – | – | – | –
CC[C@H](Nc1nc(N)nc(N)c1Cl)c1nc2cccc(NCc3ccc(C(=O)NO)cc3)c2c(=O)n1-c1ccccc1 | 3.21 | 2.81 | 4.18 | 4.4 | – | 5.73 | – | 4.75 | – | 3.65 | 1.55 | 1.26 | 1.7 | 1.36 | 1.55 | – | 2.33 | – | 2.02 | –
CCN(CC)Cc1ccc2cccnc2c1O | > 100 | > 100 | > 100 | > 100 | > 100 | 32.9 | > 100 | 18.5 | 11.4 | > 100 | – | – | – | – | – | – | – | – | – | –
Cc1ccc(C)c(/C(=N\N=C(N)N)C2CC2)c1 | > 100 | > 100 | > 100 | > 100 | 66.7 | > 100 | > 100 | > 100 | > 100 | > 100 | – | – | – | – | – | – | – | – | – | –
Oc1cc(O)cc(/C=C/c2ccc(O)c(O)c2)c1 | > 100 | 50.3 | > 88.4 | > 100 | 40.2 | 53.4 | 42.1 | > 100 | > 100 | – | – | – | – | – | – | – | – | – | – | –
CC(C)CNc1nc(N)[nH]c(=O)c1NC=O | > 100 | > 100 | > 100 | > 100 | > 100 | > 100 | > 100 | > 100 | > 100 | > 100 | – | – | – | – | – | – | – | – | – | –
c1ccc([C@@H]2N[C@@]3(CO[Si](c4ccccc4)(c4ccccc4)c4ccccc4)CC[C@H]4CN[C@@H]2[C@H]43)cc1 | 35.6 | 15.9 | 31.5 | 2.65 | 30.5 | 26.1 | 27.5 | 10.4 | 27 | 25.9 | – | – | – | – | – | – | – | – | – | –
O=C1c2ccccc2C(=O)c2c(NCCNC(=O)C3CCCN3)ccc(NCCNC(=O)C3CCCN3)c21 (configuration not stated) | > 100 | > 100 | > 100 | > 100 | > 100 | > 100 | > 100 | > 100 | > 100 | > 100 | – | – | – | – | – | – | – | – | – | –
Cc1ncc(CO)c(CN)c1O | > 100 | – | > 100 | > 100 | > 100 | > 100 | > 100 | > 100 | > 100 | > 100 | – | – | – | – | – | – | – | – | – | –
COc1cc2c(cc1OC)C1C(O)C(OC)C=C3CC[N+](C)(C2)C31 (configuration not stated) | > 100 | > 100 | > 100 | > 100 | > 100 | > 100 | > 100 | > 100 | > 100 | > 100 | – | – | – | – | – | – | – | – | – | –
C[C@H]1CCC/C=C/[C@@H]2C[C@H](O)C[C@H]2[C@H](O)[C@@H](S(=O)CCN)CC(=O)O1 (some centres not stated) | > 100 | > 100 | > 100 | 0.382 | 1.74 | > 100 | 0.199 | 10.8 | – | 0.0613 | 0.0475 | 0.274 | 0.21 | < 0.0138 | 0.0234 | 0.044 | 0.0402 | 0.041 | 0.28 | 0.0495
Cn1cnc2c(OCC3CCCCC3)nc(N)nc21 | > 100 | > 100 | > 100 | > 100 | > 100 | > 100 | > 100 | > 100 | > 100 | > 100 | – | – | – | – | – | – | – | – | – | –
CN(C)CCNC(=O)c1cccc2nc3c4ccccc4c4ccccc4c3nc12 | 3.27 | 39.4 | 8.6 | 3.6 | 3.41 | 12.2 | 28.1 | 3.13 | 7 | 3.32 | – | – | – | – | – | – | – | – | – | –
O=C(c1cc(Br)ccc1O)c1cc(Br)ccc1O | 31.1 | 27.1 | 32.3 | 31.6 | 35.4 | 32 | 42 | 38.5 | 29.2 | 33.5 | – | – | – | – | – | – | – | – | – | –
COc1cc2ccc1-c1cc(ccc1O)CC1c3cc4c(cc3CCN1C)Oc1c(OC)cc3c(c1O4)C(C2)N(C)CC3 (configuration not stated) | 2.89 | 27 | 4.28 | 3.48 | 3.9 | 3.41 | 4.08 | 3.12 | 3.93 | – | – | – | – | – | – | – | – | – | – | –
C=CCNC(=O)/C(Cc1cc(Br)c(OC)c(Br)c1O)=N\O | 31 | 24.1 | 58.9 | 17.3 | 18.1 | 53.4 | 23.4 | 21.7 | 10.7 | 32.6 | – | – | – | – | – | – | – | – | – | –
